{"source": "patent US5770380A", "about": "(priority 1996, dated 1998)", "biological_target": "melittin (Apis mellifera, UniProt P01501)", "sequence (P01501 44-69 limits assumed)": "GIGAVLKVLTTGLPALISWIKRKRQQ", "experiment": "biochemical", "format": "binding, bee", "data": [{"smiles": "CCCCOc1c2cc(C(=O)Nc3cc4cc(c3)C(=O)NCC(=O)N[C@@H](CC(=O)O)C(=O)NCC(=O)N[C@@H](CC(=O)O)C(=O)NC4)cc1Cc1cc(C(=O)Nc3cc4cc(c3)C(=O)NCC(=O)N[C@@H](CC(=O)O)C(=O)NCC(=O)N[C@@H](CC(=O)O)C(=O)NC4)cc(c1OCCCC)Cc1cc(C(=O)Nc3cc4cc(c3)C(=O)NCC(=O)N[C@@H](CC(=O)O)C(=O)NCC(=O)N[C@@H](CC(=O)O)C(=O)NC4)cc(c1OCCCC)Cc1cc(C(=O)Nc3cc4cc(c3)C(=O)NCC(=O)N[C@@H](CC(=O)O)C(=O)NCC(=O)N[C@@H](CC(=O)O)C(=O)NC4)cc(c1OCCCC)C2", "note": "[compound 1, Calix[4]arenetetracyclicpeptide1]", "values": [{"measurement": "Kd", "value": 1000, "unit": "nM"}]}]}
